According to patent US8580842B2, “Heteroaryl-substituted 1,3-dihydroindol-2-one derivatives and medicaments containing them” (Abbott GmbH & Co. KG, priority 2003, dated 2013):
pKi: −log10 of the molar value. Where a name gives a salt, the structure may show the parent alone.

Each molecule was assayed against T1, human V1b receptors (Homo sapiens, UniProt P47901) (assay: Vasopressin V1b receptor binding assay). Details: membranes from CHO-K1 cells expressing human V1b receptors, displacement of 1.5 nM 3H-AVP; read-out: Binding affinity for the vasopressin V1b receptor.
T1 construct: expressed in transfected cells; host or cells: CHO-K1 (membrane preparation V1b-3H2)
T1 sequence (P47901 1-424): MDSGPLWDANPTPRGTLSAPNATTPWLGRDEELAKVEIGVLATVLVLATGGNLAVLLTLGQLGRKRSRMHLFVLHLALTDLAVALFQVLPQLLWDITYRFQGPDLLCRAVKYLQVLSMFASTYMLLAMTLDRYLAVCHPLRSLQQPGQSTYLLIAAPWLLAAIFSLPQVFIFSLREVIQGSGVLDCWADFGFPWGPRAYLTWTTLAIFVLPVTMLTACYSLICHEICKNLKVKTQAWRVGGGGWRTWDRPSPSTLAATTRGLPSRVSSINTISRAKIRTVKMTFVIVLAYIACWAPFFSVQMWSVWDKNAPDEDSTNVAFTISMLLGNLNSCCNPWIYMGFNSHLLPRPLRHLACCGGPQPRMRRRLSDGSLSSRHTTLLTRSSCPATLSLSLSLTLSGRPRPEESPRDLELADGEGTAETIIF
Protocol: Vasopressin V1b Receptor Binding Assay
The binding of the compounds of this invention to the vasopressin V1b receptor was determined with the following assay:
Compounds were dissolved in a concentration of 10^−2 M or 10^−3 M in DMSO. Further dilutions were performed with water.
The procedure for the binding assay was based on the method of Tahara et al. (Tahara A et al., Brit. J. Pharmacol. 125, 1463-1470 (1998)). Assays (0.250 ml) consisted of membranes (58 μg protein) from CHO-K1 cells permanently expressing human V1b receptors (preparation V1b-3H2, containing protease inhibitors, Roche complete Mini #1836170), 1.5 nM ^3H-AVP (8-Arg-vasopressin, NET 800) in incubation buffer (total binding) and different concentrations of test compound (displacement). Non-specific binding was defined with 10^−6 M AVP. Assays were performed in triplicate.
Incubation buffer: 50 mM Tris, 10 mM MgCl2, 0.1% BSA adjusted to pH 7.4 with HCl.
After incubation, 60 min at room temperature, bound and free radioligand was separated by filtration under vacuum through Whatman GF/B glass fibre mats using a Skatron cell harvester 7000.
Liquid scintillation counting was performed in beta-counters, Tricarb model 2000 or 2200CA (Packard). Dpm were calculated by a programme with standardisation using a standard quench series.
Evaluation of binding parameters was performed by non-linear regression analysis with SAS. The strategy of this program is similar to the program LIGAND described by Munson and Rodbard (Munson PJ and Rodbard D, Analytical Biochem 107, 220-239 (1980)).

SMILES	pKi
COc1ccc(S(=O)(=O)N2C(=O)C(c3cccnc3OC)(N3C[C@H](O)C[C@H]3C(=O)N(C)C)c3cc(C#N)ccc32)cc1 (single isomer, unassigned) [Example 242]	> 7.30
COc1ncccc1C1(OC(=O)N2CCN(C3CCN(C)CC3)CC2)C(=O)N(S(=O)(=O)c2cn(C)cn2)c2ccc(Cl)cc21 (stereo not drawn) [Example 165, 4-(1-Methyl-piperidin-4-yl)-piperazine-1-carboxylic acid 5-chloro-3-(2-methoxy-pyridin-3-yl)-1-(1-methyl-1H-imidazole-4-sulfonyl)-2-oxo-2,3-dihydro-1H-indol-3-yl ester diacetate]	6.30 to 7.30
COc1ccccc1C1(N2C[C@H](O)C[C@H]2C(=O)N(C)C)C(=O)N(S(=O)(=O)c2ccc(Br)cn2)c2ccc(Cl)cc21 (single isomer, unassigned) [Example 48]	> 7.30
COc1ccc(S(=O)(=O)N2C(=O)C(c3cnc(OC)nc3OC)(N3C[C@H](O)C[C@H]3C(=O)N(C)C)c3cc(Cl)ccc32)cc1 (single isomer, unassigned) [Example 236]	> 7.30
COc1ncccc1C1(OC(=O)N2CCC(N3CCN(C)CC3)CC2)C(=O)N(S(=O)(=O)c2ccccc2)c2ccc(Cl)cc21 (stereo not drawn) [Example 103, 4-(4-Methyl-piperazin-1-yl)-piperidine-1-carboxylic acid 1-benzenesulfonyl-5-chloro-3-(2-methoxy-pyridin-3-yl)-2-oxo-2,3-dihydro-1H-indol-3-yl ester]	> 7.30
COC(=O)[C@@H]1CCCN1C1(c2cccnc2OC)C(=O)N(S(=O)(=O)c2ccc(OC)cc2OC)c2ccc(Cl)cc21 (mixture of isomers) [Example 248, (S)-1-[5-Chloro-1-(2,4-dimethoxy-benzenesulfonyl)-3-(2-methoxy-pyridin-3-yl)-2-oxo-2,3-dihydro-1H-indol-3-yl]-pyrrolidine-2-carboxylic acid methyl ester]	> 7.30
COc1ncccc1C1(OC(=O)N2CCN(C3CCN(C)CC3)CC2)C(=O)N(S(=O)(=O)c2ccccc2)c2ccc(Cl)cc21 (stereo not drawn) [Example 76, 4-(1-Methyl-piperidin-4-yl)-piperazine-1-carboxylic acid 1-benzenesulfonyl-5-chloro-3-(2-methoxy-pyridin-3-yl)-2-oxo-2,3-dihydro-1H-indol-3-yl ester]	> 7.30
CCOc1ccccc1C1(OC(=O)N2CCN(C3CCN(C)CC3)CC2)C(=O)N(S(=O)(=O)c2cccc3cccnc23)c2ccc(C#N)cc21 (stereo not drawn) [Example 158, 4-(1-Methyl-piperidin-4-yl)-piperazine-1-carboxylic acid 5-cyano-3-(2-ethoxy-phenyl)-2-oxo-1-(quinoline-8-sulfonyl)-2,3-dihydro-1H-indol-3-yl ester]	> 7.30
COc1ncc(C2(N3C[C@H](O)C[C@H]3C(=O)N(C)C)C(=O)N(S(=O)(=O)c3cccs3)c3ccc(Cl)cc32)c(OC)n1 (single isomer, unassigned) [Example 281]	6.30 to 7.30
COc1ncccc1C1(N2C[C@H](O)C[C@H]2C(=O)N(C)C)C(=O)N(S(=O)(=O)c2cccs2)c2ccc(C#N)cc21 (single isomer, unassigned) [Example 277]	6.30 to 7.30
COc1ccc(S(=O)(=O)N2C(=O)C(c3cccnc3OC)(N3CC=C[C@H]3C(=O)N(C)C)c3cc(Cl)ccc32)c(OC)c1 (mixture of isomers) [Example 247, (S)-1-[5-Chloro-1-(2,4-dimethoxy-benzenesulfonyl)-3-(2-methoxy-pyridin-3-yl)-2-oxo-2,3-dihydro-1H-indol-3-yl]-2,5-dihydro-1H-pyrrole-2-carboxylic acid dimethylamide]	> 7.30
COc1ccccc1C1(OC(=O)N2CCN(C3CCN(C)CC3)CC2)C(=O)N(S(=O)(=O)c2ccccn2)c2ccc(C)cc21 (stereo not drawn) [Example 127, 4-(1-Methyl-piperidin-4-yl)-piperazine-1-carboxylic acid 3-(2-methoxy-phenyl)-5-methyl-2-oxo-1-(pyridine-2-sulfonyl)-2,3-dihydro-1H-indol-3-yl ester dihydrochloride]	> 7.30
COc1ccccc1C1(N2C[C@H](O)C[C@H]2C(=O)N(C)C)C(=O)N(S(=O)(=O)c2sc(Cl)cc2Br)c2ccc(Cl)cc21 (single isomer, unassigned) [Example 32]	6.30 to 7.30
COc1ccc(S(=O)(=O)N2C(=O)C(OC(=O)N3CCN(C4CCN(C)CC4)CC3)(c3cccnc3OC)c3cc(Cl)ccc32)c(OC)c1 (stereo not drawn) [Example 105, 4-(1-Methyl-piperidin-4-yl)-piperazine-1-carboxylic acid 5-chloro-1-(2,4-dimethoxy-benzenesulfonyl)-3-(2-methoxy-pyridin-3-yl)-2-oxo-2,3-dihydro-1H-indol-3-yl ester]	> 7.30
COc1ccc(S(=O)(=O)N2C(=O)C(c3cnc(OC)nc3OC)(N3C[C@H](O)C[C@H]3C(=O)N(C)C)c3cc(Cl)ccc32)c(OC)c1 (single isomer, unassigned) [Example 3]	> 7.30
COc1ccc(S(=O)(=O)N2C(=O)C(c3ccc[nH]c3=O)(N3C[C@H](O)C[C@H]3C(=O)N(C)C)c3cc(Cl)ccc32)c(OC)c1 (stereo partly drawn) [Example 224, (2S,4R)-1-[5-Chloro-1-(2,4-dimethoxy-benzenesulfonyl)-2-oxo-3-(2-oxo-1,2-dihydro-pyridin-3-yl)-2,3-dihydro-1H-indol-3-yl]-4-hydroxy-pyrrolidine-2-carlboxylic acid dimethylamide]	> 7.30
COc1ccccc1C1(OC(=O)N2CCC(N3CCN(C)CC3)CC2)C(=O)N(S(=O)(=O)c2cccs2)c2ccc(C)cc21 (stereo not drawn) [Example 130, 4-(4-Methyl-piperazin-1-yl)-piperidine-1-carboxylic acid 3-(2-methoxy-phenyl)-5-methyl-2-oxo-1-(thiophene-2-sulfonyl)-2,3-dihydro-1H-indol-3-yl ester dihydrochloride]	> 7.30
COc1ccc(S(=O)(=O)N2C(=O)C(c3nc4ccccc4s3)(N3C[C@H](O)C[C@H]3C(=O)N(C)C)c3cc(Cl)ccc32)c(OC)c1 (single isomer, unassigned) [Example 2]	> 7.30
COc1ccc(S(=O)(=O)N2C(=O)C(c3cccnc3OC)(N3CCC[C@H]3C(=O)N(C)C)c3ccccc32)c(OC)c1 (single isomer, unassigned) [Example 226]	6.30 to 7.30
COc1ccc(S(=O)(=O)N2C(=O)C(c3cccnc3OC)(N3C[C@H](O)C[C@H]3C(=O)N(C)C)c3ccccc32)c(OC)c1 (single isomer, unassigned) [Example 225]	6.30 to 7.30
COc1ncccc1C1(OC(=O)N2CCN(C3CCN(C)CC3)CC2)C(=O)N(S(=O)(=O)c2ccsc2)c2ccc(Cl)cc21 (stereo not drawn) [Example 171, 4-(1-Methyl-piperidin-4-yl)-piperazine-1-carboxylic acid 5-chloro-3-(2-methoxy-pyridin-3-yl)-2-oxo-1-(thiophene-3-sulfonyl)-2,3-dihydro-1H-indol-3-yl ester diacetate]	> 7.30
COc1ccsc1S(=O)(=O)N1C(=O)C(c2cccnc2OC)(N2C[C@H](O)C[C@H]2C(=O)N(C)C)c2cc(OC(F)(F)F)ccc21 (single isomer, unassigned) [Example 286]	6.30 to 7.30
COc1ccc(S(=O)(=O)N2C(=O)C(c3cccnc3OC)(N3CCCC[C@H]3C(=O)N(C)C)c3cc(Cl)ccc32)c(OC)c1 (single isomer, unassigned) [Example 237]	> 7.30
COc1ccc(S(=O)(=O)N2C(=O)C(c3nccnc3OC)(N3C[C@H](O)C[C@H]3C(=O)N(C)C)c3cc(Cl)ccc32)c(OC)c1 (single isomer, unassigned) [Example 13]	> 7.30
CCOc1ccccc1C1(OC(=O)N2CCN(C3CCN(C)CC3)CC2)C(=O)N(S(=O)(=O)c2sccc2OC)c2ccc(Cl)cc21 (stereo not drawn) [Example 143, 4-(1-Methyl-piperidin-4-yl)-piperazine-1-carboxylic acid 5-chloro-3-(2-ethoxy-phenyl)-1-(3-methoxy-thiophene-2-sulfonyl)-2-oxo-2,3-dihydro-1H-indol-3-yl ester]	> 7.30
COc1ccc(S(=O)(=O)N2C(=O)C(NC(=O)C3CCN(c4ccncc4)CC3)(c3cccnc3OC)c3cc(Cl)ccc32)c(OC)c1 (stereo not drawn) [Example 82, 3,4,5,6-Tetrahydro-2H-[1,4′]bipyridinyl-4-carboxylic acid [5-chloro-1-(2,4-dimethoxy-benzenesulfonyl)-3-(2-methoxy-pyridin-3-yl)-2-oxo-2,3-dihydro-1H-indol-3-yl]-amide]	> 7.30
COc1ccccc1C1(N2C[C@H](O)C[C@H]2C(=O)N(C)C)C(=O)N(S(=O)(=O)c2ccccn2)c2ccc(Cl)cc21 (single isomer, unassigned) [Example 47]	> 7.30
